Experimental data: patent US20100075360A1, “UV BASED CELL VIABILITY AS AN INDICATOR OF SUN PROTECTION FACTOR AND METHODS OF MEASUREMENT THEREOF” (priority 2008, published 2010)
Read-outs that look alike come from different tables or passages of the source.

How the values were obtained:
[1] = system: Swiss 3T3 fibroblast cells; experiment: Percentage of UV protection in Swiss 3T3 fibroblast cells (NRU staining); assay type: cell-based, mouse; conditions: UV B 5 minutes
Experimental: The unexposed region of the plate was covered by aluminum foil. […] The percentage of UV protection was calculated with respect to unexposed cells.

[2] = system: Swiss 3T3 fibroblast cells
Experimental: Swiss 3T3 Mouse fibroblast cells and HaCAT Human keratinocytes were obtained from ATCC and cultured in DMEM medium supplemented with 10% FBS. The confluent cultures are harvested by trypsinization and expanded during two more passages before they were used for the experiments. Medium and other culture components were renewed after 48-72 h. All cell cultures were maintained in a humidified atmosphere at 37° C. in 95% air and 5% CO2.
UV lamp of 14.7 W, 0.3 A, 55V with an intensity of 33.3 μW/cm^2 from Sankyo Denki Co., Ltd.
The neutral red (NR) uptake assay: The NR cytotoxicity assay procedure is a cell survival/viability chemosensitivity assay, based on the ability of viable cells to incorporate and bind neutral red, a supravital dye. NR is a weak cationic dye that readily penetrates cell membranes by non-ionic diffusion, accumulating intracellularly in lysosomes, where it binds with anionic sites in the lysosomal matrix. Alterations of the cell surface or the sensitive lysosomal membrane lead to lysosomal fragility and other changes that gradually become irreversible. Such changes brought about by UV exposure result in a decreased uptake and binding of NR. It is thus possible to distinguish between viable, damaged, or dead cells, which are the basis of this assay. The dye taken up by the cells is subsequently extracted and measured. The dye was dissolved in distilled water at a concentration of 0.5 mg/100 μl. 80 μl of this stock solution was dissolved in 15 ml of pre warmed DMEM medium. The developer solution consists of 25 ml of water, 24.5 ml of ethanol and 0.5 ml of glacial acetic acid. The NRU dye and the developer solutions are to be made fresh before use. After UV exposure and consequent incubation for 72 hrs, the culture medium is replaced with NRU dye and incubated for 3 hrs at 37° C., after which the dye is washed off thrice with PBS. The dye is dissolved in 100 μl of developer solution and incubated at RT for 20 min. The OD was determined at 492 nm using a microplate reader.
Swiss 3T3 fibroblasts were plated in a 96 well micropipette at a seeding density of 3000 cells per well. […] After exposure, the cells were incubated in a CO2 incubator for 48 hrs and developed by the NRU staining technique to analyze the cell viability. The SPF of 1.25% OMC was determined with respect to the untreated cells.

CCCCC(CC)COC(=O)C=Cc1ccc(OC)cc1 (stereo not shown) [OMC, Octyl methoxy cinnamate]
% UV protection ([1]; 0.15% OMC in culture medium, vs unexposed cells): 56% | % UV protection ([1]; 0.31% OMC in culture medium): 71% | % UV protection ([1]; 0.62% OMC in culture medium): 77% | % UV protection ([1]; 1.25% OMC in culture medium): 90% | minimal cytotoxic dose (MCDp) for protected cells ([2]; 1.25% OMC): 0.144 J/cm^2 | % UV toxicity ([2]; 1.25% OMC, UV dosage 0.0072 J/cm^2): 0% | % UV toxicity ([2]; 1.25% OMC, UV dosage 0.0216 J/cm^2): 0% | % UV toxicity ([2]; 1.25% OMC, UV dosage 0.036 J/cm^2): 0% | % UV toxicity ([2]; 1.25% OMC, UV dosage 0.0504 J/cm^2): 0% | % UV toxicity ([2]; 1.25% OMC, UV dosage 0.072 J/cm^2): 0% | % UV toxicity ([2]; 1.25% OMC, UV dosage 0.216 J/cm^2): 39.62% | minimal cytotoxic dose (MCDp) for protected cells ([2]; 7% OMC): 0.54 J/cm^2 | SPF (MCDp/MCDu) ([2]; 7% OMC, MCDu 0.0216 J/cm^2): 25 | % UV toxicity ([2]; 7% OMC, UV dosage 0.0072 J/cm^2): 0% | % UV toxicity ([2]; 7% OMC, UV dosage 0.0216 J/cm^2): 0% | % UV toxicity ([2]; 7% OMC, UV dosage 0.036 J/cm^2): 0% | % UV toxicity ([2]; 7% OMC, UV dosage 0.0504 J/cm^2): 0% | % UV toxicity ([2]; 7% OMC, UV dosage 0.072 J/cm^2): 0% | % UV toxicity ([2]; 7% OMC, UV dosage 0.18 J/cm^2): 0% | % UV toxicity ([2]; 7% OMC, UV dosage 0.432 J/cm^2): 0% | % UV toxicity ([2]; 7% OMC, UV dosage 0.54 J/cm^2): 7% | % UV toxicity ([2]; 7% OMC, UV dosage 0.648 J/cm^2): 9%
